In patent US8912181B2 (Taiho Pharmaceutical Co., Ltd., priority 2011, dated 2014) one finds IC50 data, which are given here for 22 molecules.

Molecules are shown by their SMILES.

Test [1] addresses human HSP90 alpha protein (N-terminal, amino acids 2 to 236) (Homo sapiens (Human), UniProt P07900). Put plainly: Determination of HSP90-binding activity (AlphaScreen competitive assay with biotinylated geldanamycin). As to conditions: inhibition of binding of biotinylated geldanamycin to purified HSP90 N-terminal protein, read-out: HSP-binding activity IC50. The protocol: First, a purified HSP90 solution was prepared as follows: a human HSP90 alpha gene (NCBI Reference Sequence accession no. NM-005348) region corresponding to amino acids 2 to 236 of human HSP90 alpha protein (NCBI Reference Sequence accession no. NP-005339; full length: 732 amino acids) was inserted to pET-19b (Novagen; Merck KGaA) to construct a plasmid pET-HS[…] for expression of the HSP90 N-terminal protein having a His-tag at the N-terminus. E. coli (BL21(DE3), Stratagene Corp.) was transformed with pET-HS[…] and then cultured at 37° C. for 4 hours in the presence of 0.5 mM isopropyl-beta-D-thiogalactopyranoside (Sigma-Aldrich Corp.). The collected E. coli was suspended in a lysis buffer (50 mM Tris-HCl (pH 7.5), 200 mM NaCl) and sonicated. The sonicated cell solution was centrifuged (40,000×g, 20 minutes), and the supernatant was used as a crude extract. This crude extract was fractionated using Ni Sepharose High Performance (GE Healthcare Japan Corp.) chromatography and HiLoad 26/60 Superdex 75 pg (GE Healthcare Japan Corp.). Then, a fraction of HSP90 protein concentrates was prepared in a solution containing 50 mM Tris-HCl (pH 7.5) and 20% glycerol as a purified HSP90 solution. The purified HSP90 solution was divided and stored at -80° C. until use. HSP90-binding activity was determined by an AlphaScreen competitive assay system. […] After reaction at room temperature for 2 hours, biotinylated geldanamycin was added thereto at a concentration of 40 nM/well and further reacted for 1 hour. Detection mix (20 mM HEPES-KOH (pH 7.5), 0.5% BSA, 0.04 mg/mL Nickel Chelate Acceptor beads, 0.04 mg/mL Streptavidin-coated Donor beads) (#6760619C, PerkinElmer, Inc.) was added to each well in an amount equal to the amount of the reaction solution and reacted at room temperature for 1 hour in the dark. Then, fluorescence intensity was measured using Multilabel Plate Reader EnVision (PerkinElmer, Inc.). Percent inhibition (%) of the binding of biotinylated geldanamycin by each compound of the present invention was determined according to the formula shown below with the fluorescence signal of no test substance addition group as a control. […] Percent inhibition (%)=(C-T)/C×100, wherein T: Signal of well with test substance addition C: Signal of well without test substance addition.

The next test concerns SK-BR-3 cells. Put plainly: Determination of cell growth inhibition (crystal violet staining method). The test is classed as cell-based. As to conditions: Homo sapiens; breast cancer cells SK-BR-3, 72 hours culture with test substance. The protocol: Cell growth was assayed by a crystal violet staining method. SK-BR-3 cells (HTB-30) purchased from American Type Culture Collection were inoculated at a concentration of 5,000 cells/well to a 96-well plate (#353075, BD Biosciences). After culture at 37° C. for 24 hours in a 5% CO2 incubator, each test substance was added thereto, and the cells were further cultured for 72 hours. A 25% glutaraldehyde solution (#17025-25, Nacalai Tesque, Inc.) was added thereto at a concentration of 20 μL/well per 200 μL of the medium, and the plate was incubated at room temperature for 20 minutes to fix the cells. The plate was washed with water and dried. Then, a solution containing 0.05% crystal violet (#038-17792, Wako Pure Chemical Industries, Ltd.) and 20% methanol was added thereto at a concentration of 100 μL/well, and the plate was incubated at room temperature for 20 minutes to stain the cells. The plate was washed with water and dried. A mixed solution of 0.05 M NaH2PO4 and ethanol (mixed in equal amounts) was added thereto at a concentration of 100 μL/well. Absorbance was measured at 540 nm using a microplate reader (MTP-450, Corona Electric Co., Ltd.) and used as an index for the number of cells per well. Percent inhibition (%) of cell growth by each compound of the present invention was determined according to the formula shown below with the absorbance of no drug addition group as a control. […] Percent inhibition (%)=(C−T)/C×100, wherein T: Absorbance of well with test substance addition C: Absorbance of well without test substance addition.

`Cc1cc(-c2ccc(C(N)=O)c(N)c2)c2cccc(-n3cnc(-c4cnn(C)c4)c3)c2n1` [Example 101, 2-Amino-4-(2-methyl-8-(4-(1-methyl-1H-pyrazol-4-yl)-1H-imidazol-1-yl)quinolin-4-yl)benzamide]: the concentration for half-maximal inhibition (IC50) (in test [1]; with SK-BR-3 cells) was 0.12 µM throughout.
Regarding `Cc1cc(-c2ccc(C(N)=O)cc2C)c2cccc(-n3cnc(-c4cnn(C)c4)c3)c2n1` [Example 102, 3-Methyl-4-(2-methyl-8-(4-(1-methyl-1H-pyrazol-4-yl)-1H-imidazol-1-yl)quinolin-4-yl)benzamide], the half-inhibitory concentration (IC50) was 0.25 µM in test [1] and 0.63 µM with SK-BR-3 cells.
For the molecule `NC(=O)c1ccc(-c2nccc3c(-n4cnc(-c5ccncc5)c4)cccc23)cc1NC1CCC(O)CC1` (centres unmarked) [Example 25, 2-(4-Hydroxycyclohexylamino)-4-(5-(4-(pyridin-4-yl)-1H-imidazol-1-yl)isoquinolin-1-yl)benzamide], the IC50 in test [1] is 0.13 µM; with SK-BR-3 cells, 0.11 µM.
As for `NC(=O)c1ccc(-c2cc(C(F)(F)F)nc3c(-n4cnc(-c5ccccc5)c4)cccc23)cc1N` [Example 108, 2-Amino-4-(8-(4-phenyl-1H-imidazol-1-yl)-2-(trifluoromethyl)quinolin-4-yl)benzamide], the figures for the IC50 (in test [1]; with SK-BR-3 cells) were 3.75 µM and 0.34 µM, respectively.
Regarding `Cn1cc(-c2cn(-c3cccc4c(-c5ccc(C(N)=O)c(NC(C)(C)C)c5)ccnc34)cn2)cn1` [Example 130, 2-(Tert-butylamino)-4-(8-(4-(1-methyl-1H-pyrazol-4-yl)-1H-imidazol-1-yl)quinolin-4-yl)benzamide], the IC50 in test [1] was found to be 0.11 µM; with SK-BR-3 cells, 0.06 µM.
On to `CC(C)(C)OC(=O)NCCc1cncc(-c2cccc3c(-c4ccc(C(N)=O)c(NC5CCC(O)CC5)c4)nccc23)c1` (centres unmarked) [Example 19, Tert-butyl 2-(5-(1-(4-carbamoyl-3-(4-hydroxycyclohexylamino)phenyl)isoquinolin-5-yl)pyridin-3-yl)ethylcarbamate], for which the 50% inhibitory concentration (IC50) in test [1] was found to be 2.69 µM; in the test on SK-BR-3 cells it was 0.88 µM.
As to `Cc1ccc2ncc(-c3cccc4c(-c5ccc(C(N)=O)c(NC6CCC(O)CC6)c5)nccc34)cc2c1` (centres unmarked) [Example 9, 2-(4-Hydroxycyclohexylamino)-4-(5-(6-methylquinolin-3-yl)isoquinolin-1-yl)benzamide], the IC50 in test [1] is 0.27 µM; in the test on SK-BR-3 cells, 0.05 µM.
In the case of `NC(=O)c1ccc(-c2cccc3c(-c4cnc5ccccc5c4)ncnc23)cc1NC1CCC(O)CC1` (centres unmarked) [Comp. Ex. 2, 2-(4-Hydroxycyclohexylamino)-4-(4-(quinolin-3-yl)quinazolin-8-yl)benzamide, reference compound], the IC50 in test [1] is above 100 µM; with SK-BR-3 cells, above 10 µM.
For the molecule `Cn1cc(-c2cn(-c3cccc4c(-c5ccc(C(N)=O)c(N)c5)cc(C(F)(F)F)nc34)cn2)cn1` [Example 69, 2-Amino-4-(8-(4-(1-methyl-1H-pyrazol-4-yl)-1H-imidazol-1-yl)-2-(trifluoromethyl)quinolin-4-yl)benzamide], the results for the 50% inhibitory concentration (IC50) (in test [1]; in the test with SK-BR-3 cells) were 0.15 µM and 0.02 µM, respectively.
`CCc1cc(-c2ccc(C(N)=O)c(NC(C)(C)C)c2)c2cccc(-n3cnc(-c4cnn(C)c4)c3)c2n1` [Example 103, 2-(Tert-butylamino)-4-(2-ethyl-8-(4-(1-methyl-1H-pyrazol-4-yl)-1H-imidazol-1-yl)quinolin-4-yl)benzamide]: the figures for the concentration for half-maximal inhibition (IC50) (in test [1]; with SK-BR-3 cells) were 0.12 µM and 0.01 µM, respectively.
As for `Cn1cc(-c2cn(-c3cccc4c(-c5ccc(C(N)=O)c(NC(C)(C)C)c5)nc(C(F)(F)F)nc34)cn2)cn1` [Example 79, 2-(Tert-butylamino)-4-(8-(4-(1-methyl-1H-pyrazol-4-yl)-1H-imidazol-1-yl)-2-(trifluoromethyl)quinazolin-4-yl)benzamide], the values for the half-maximal inhibitory concentration (IC50) (in test [1]; with SK-BR-3 cells) were 0.32 µM and 0.02 µM, respectively.
In the same order, the values of `Cn1cc(-c2cn(-c3cccc4c(-c5ccc(C(N)=O)c(N)c5)nccc34)cn2)cn1` [Example 128, 2-Amino-4-(5-(4-(1-methyl-1H-pyrazol-4-yl)-1H-imidazol-1-yl)isoquinolin-1-yl)benzamide] are 0.31 µM and 1.06 µM.
Take `Cc1cc2c(-c3cnc4ccccc4c3)cccc2c(-c2ccc(C(N)=O)c(NC3CCC(O)CC3)c2)n1` (centres unmarked) [Example 7, 2-(4-Hydroxycyclohexylamino)-4-(3-methyl-5-(quinolin-3-yl)isoquinolin-1-yl)benzamide]: the IC50 was 0.15 µM in test [1] and 0.01 µM in the test on SK-BR-3 cells.
On to `NC(=O)c1ccc(-c2nccc3c(-c4cncc(CO)c4)cccc23)cc1NC1CCC(O)CC1` (centres unmarked) [Example 17, 2-(4-Hydroxycyclohexylamino)-4-(5-(5-(hydroxymethyl)pyridin-3-yl)isoquinolin-1-yl)benzamide], for which the IC50 was 0.1 µM in test [1] and 0.28 µM in the test with SK-BR-3 cells.
As to `Cc1ccc(-c2cn(-c3cccc4c(-c5ccc(C(N)=O)cc5C)cc(C(F)(F)F)nc34)cn2)cn1` [Example 100, 3-Methyl-4-(8-(4-(6-methylpyridin-3-yl)-1H-imidazol-1-yl)-2-(trifluoromethyl)quinolin-4-yl)benzamide], the IC50 in test [1] worked out at 0.34 µM; in the test on SK-BR-3 cells, 0.26 µM.
Consider `NC(=O)c1ccc(-c2nccc3c(-c4cccnc4)cccc23)cc1NC1CCC(O)CC1` (centres unmarked) [Example 15, 2-(4-Hydroxycyclohexylamino)-4-(5-(pyridin-3-yl)isoquinolin-1-yl)benzamide], for which the IC50 in test [1] worked out at 0.14 µM; in the test with SK-BR-3 cells it was 0.21 µM.
As for `CC(C)c1cc(-c2ccc(C(N)=O)c(N)c2)c2cccc(-n3cnc(-c4cnn(C)c4)c3)c2n1` [Example 113, 2-Amino-4-(2-isopropyl-8-(4-(1-methyl-1H-pyrazol-4-yl)-1H-imidazol-1-yl)quinolin-4-yl)benzamide], the IC50 in test [1] was determined as 0.08 µM; in the test on SK-BR-3 cells it was 0.01 µM.
Turning to `Cc1cc2c(-c3cnc4ccccc4c3)cccc2c(-c2ccc(C(N)=O)c(NC3CCC(O)CC3)c2)[n+]1[O-]` (centres unmarked) [Example 8, 1-(4-Carbamoyl-3-(4-hydroxycyclohexylamino)phenyl)-3-methyl-5-(quinolin-3-yl)isoquinoline-2-oxide], the results for the IC50 (in test [1]; with SK-BR-3 cells) were 0.1 µM and 0.02 µM, respectively.
On to `NC(=O)c1ccc(-c2nc(CN3CCOCC3)cc3c(-c4cnc5ccccc5c4)cccc23)cc1NC1CCC(O)CC1` (centres unmarked) [Example 31, 2-(4-Hydroxycyclohexylamino)-4-(3-(morpholinomethyl)-5-(quinolin-3-yl)isoquinolin-1-yl)benzamide], for which the values for the IC50 (in test [1]; with SK-BR-3 cells) were 0.8 µM and 0.58 µM, respectively.
`CC(C)c1cc(-c2ccc(C(N)=O)c(N)c2)c2cccc(-c3cnc4ccccc4c3)c2n1` [Example 121, 2-Amino-4-(2′-isopropyl-3,8′-biquinolin-4′-yl)benzamide]: the IC50 in test [1] turned out to be 0.18 µM; in the test on SK-BR-3 cells, 0.02 µM.
With `Cn1cc(-c2cn(-c3cccc4c(-c5ccc(C(N)=O)c(F)c5)cc(C(F)(F)F)nc34)cn2)cn1` [Example 70, 2-Fluoro-4-(8-(4-(1-methyl-1H-pyrazol-4-yl)-1H-imidazol-1-yl)-2-(trifluoromethyl)quinolin-4-yl)benzamide], the concentration for half-maximal inhibition (IC50) in test [1] turned out to be 0.21 µM; in the test with SK-BR-3 cells it was 0.06 µM.
`NC(=O)c1ccc(-c2nccc3c(-c4cnc5ccccc5c4)cccc23)cc1NC1CCC(O)CC1` (centres unmarked) [Example 6, 2-(4-Hydroxycyclohexylamino)-4-(5-(quinolin-3-yl)isoquinolin-1-yl)benzamide]: the IC50 stood at 0.17 µM in test [1] and 0.03 µM in the test with SK-BR-3 cells.

One may read the IC50 as the midpoint of a concentration-inhibition curve.
